Experimental data reported in US20260103465A1, “GLYCOGEN SYNTHASE KINASE 3 INHIBITORS AND USES THEREOF” (The Broad Institute, Inc., priority 2023, published 2026).
Read-outs that look alike come from different tables or passages of the source.

Key:
[1] = Human liver microsomal stability; type: in vitro ADME; details: human liver microsomes
Protocol: Stability of compound (5 μL of a 10 mM DMSO solution) in human liver microsomes was tested in duplicate by incubating compound at 1 μM for 60 minutes at 37° C. Compound level at 60 minutes was compared to level at 0 minutes, and percent remaining was calculated. Order by selecting Microsomal Stability in Prometheus, checking boxes for desired species. Assay Controls: microsomes with NADPH without compound-matrix interference. Microsomes plus compound without NADPH—non-enzymatic instability.

[2] = biological target: T1, GSK3a (GST-full length GSK3a) (Homo sapiens, UniProt P49840); assay: GSK3a TR-FRET kinase inhibition assay; type: biochemical
T1 construct: GST-full length GSK3a [SignalChem G08-10G]; purchased SignalChem G08-10G
Method in brief: (§1)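 GST-tagged full-length human kinase (1 nM), pre-incubated 30 min with compound, then reacted 100 min at ambient temperature at pH 7.5 with 200 nM biotinylated phospho-S645 glycogen synthase 631–650 peptide and ATP at 2 μM–1 mM. After EDTA quench, Tb-pSer641 antibody/streptavidin-d2 TR-FRET 665/615 ratio fitted for IC50.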

[3] = test system: MDR1-MDCK cell monolayers; assay: MDR1/MDCK permeability assay; type: in vitro ADME; details: for MDCK Permeability (MDR1-MDCK); Mean; Papp(A-B) (10^−6 cm/s): A to B; for MDCK Permeability (MDR1-MDCK); Mean; Papp(B-A) (10^−6 cm/s): B to A; for MDCK Permeability (MDR1-MDCK); Mean; P. Ratio(B-A/A-B) Efflux Ratio / MIDCK Permeability (MDR1-MDCK); Mean; P. Ratio(B-A/A-B) Efflux Ratio: Papp B-A/A-B
Text: The MDR1/MDCK assay is run at WuXi and Absorption Systems. This assay is used to determine the blood-brain barrier (BBB) penetration potential of a test compound using MDR1-MDCK cell monolayers. Catalog number EA203.
• The percent recovery of the test compound from the Transwell® wells containing MDR1-MDCK cell monolayers • The apparent permeability (Papp) in both directions • The efflux ratio (Papp B to A)/(Papp A to B) • The blood-brain barrier penetration potential classification: • High when • Papp A to B≥3.0×10^−6 cm/s, and efflux<3.0 • Moderate when • Papp A to B≥3.0×10^−6 cm/s, and 10>efflux≥3.0 • Low when either • Papp A to B≥3.0×10^−6 cm/s, and […], or when • Papp A to B<[…].
• Test compound at 5 μM in HBSSg with maximum DMSO concentration not greater than 1%.
• Confluent monolayers of MDR1-MDCK cells, 7 to 11 days old.
• Receiver well with 1% BSA in modified Hanks buffer (HBSSg) • Apical and basolateral side at pH 7.4 • Dose two monolayers in each direction (N=2) • Dose apical side for (A to B) assessment • Dose basolateral side for (B to A) assessment • Sample both apical and basolateral sides at 120 minutes • Determine the concentrations of test compound using a generic LC-MS/MS method with a minimum 4 point calibration curve.
• The quality of the cell monolayer batch is verified using control compounds before monolayers are released for use • The quality of each monolayer used in the assay is verified by a TEER measurement and by calculating the Papp for a control compound.

[4] = biological target: T2, GSK3b (GST-full length GSK3b) (Homo sapiens, UniProt P49841); assay: GSK3b TR-FRET kinase inhibition assay; type: biochemical
T2 construct: GST-full length GSK3b: [SignalChem G08-9G]; purchased SignalChem G08-9G
Method in brief: as §1

[5] = 4 μM ATP, read-out: GSK3α TR-FRET 4 μM ATP GMean IC50
[6] = 2 μM ATP, read-out: GSK3β TR-FRET 2 μM ATP GMean IC50
[7] = 1 mM ATP, Table 3, read-out: GSK3a TR-FRET 1 mM ATP Average IC50
[8] = 1 mM ATP, Table 3, read-out: GSK3b TR-FRET 1 mM ATP Average IC50
[9] = 1 mM ATP, Table 4, read-out: GSK3α TR-FRET 1 mM ATP GMean IC50
[10] = 1 mM ATP, Table 4, read-out: GSK3β TR-FRET 1 mM ATP GMean IC50
[11] = 10 μM ATP, read-out: GSK3a 10 μM ATP Average IC50
[12] = 10 μM ATP, read-out: GSK3b 10 μM ATP Average IC50
[13] = 100 μM ATP, read-out: GSK3b 100 μM ATP Average IC50
[14] = 100 μM ATP, read-out: GSK3a 100 μM ATP Average IC50

T1 sequence (P49840 whole entry): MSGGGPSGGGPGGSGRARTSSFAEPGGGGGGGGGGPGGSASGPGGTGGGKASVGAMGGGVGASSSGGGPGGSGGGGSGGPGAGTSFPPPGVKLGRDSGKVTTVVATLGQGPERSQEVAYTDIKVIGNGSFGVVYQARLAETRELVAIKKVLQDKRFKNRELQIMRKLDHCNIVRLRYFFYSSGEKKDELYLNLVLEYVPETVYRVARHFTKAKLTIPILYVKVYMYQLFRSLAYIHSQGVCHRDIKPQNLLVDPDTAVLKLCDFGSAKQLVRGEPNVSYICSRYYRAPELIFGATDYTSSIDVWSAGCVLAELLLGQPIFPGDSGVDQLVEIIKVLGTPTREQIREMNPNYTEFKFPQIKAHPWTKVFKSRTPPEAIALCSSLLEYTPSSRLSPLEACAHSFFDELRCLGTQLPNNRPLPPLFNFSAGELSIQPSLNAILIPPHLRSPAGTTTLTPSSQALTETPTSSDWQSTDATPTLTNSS
T2 sequence (P49841 whole entry): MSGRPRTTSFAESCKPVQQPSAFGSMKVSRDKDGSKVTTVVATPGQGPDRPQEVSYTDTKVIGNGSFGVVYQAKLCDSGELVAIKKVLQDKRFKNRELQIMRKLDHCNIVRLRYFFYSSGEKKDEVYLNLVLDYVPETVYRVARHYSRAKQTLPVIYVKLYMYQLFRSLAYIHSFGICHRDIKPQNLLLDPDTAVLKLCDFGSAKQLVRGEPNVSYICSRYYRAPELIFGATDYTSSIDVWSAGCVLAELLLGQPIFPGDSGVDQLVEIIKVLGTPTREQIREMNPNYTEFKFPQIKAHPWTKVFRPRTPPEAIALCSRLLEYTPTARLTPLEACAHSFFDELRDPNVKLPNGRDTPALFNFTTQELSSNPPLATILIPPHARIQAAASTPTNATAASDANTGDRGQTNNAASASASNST

| Microsome Stability (Human) (DMPK_BIIB); Mean; in vitro t1/2 ([1]; Table 4) [min] | IC50 [2, 5] [nM] | MDCK Permeability (MDR1-MDCK); Mean; Papp(A-B) (10^−6 cm/s) ([3]; Table 4) | MDCK Permeability (MDR1-MDCK); Mean; Papp(B-A) (10^−6 cm/s) ([3]; Table 4) | MDCK Permeability (MDR1-MDCK); Mean; P. Ratio(B-A/A-B) Efflux Ratio ([3]; Table 4) | IC50 [4, 6] [nM] | Microsome Stability (Human) (DMPK_BIIB); Mean; in vitro t1/2 ([1]; Table 3) [min] | IC50 [2, 7] [nM] | MDCK Permeability (MDR1-MDCK); Mean; Papp(A-B) (10^−6 cm/s) ([3]; Table 3) | MDCK Permeability (MDR1-MDCK); Mean; Papp(B-A) (10^−6 cm/s) ([3]; Table 3) | MIDCK Permeability (MDR1-MDCK); Mean; P. Ratio(B-A/A-B) Efflux Ratio ([3]; Table 3) | IC50 [4, 8] [nM] | IC50 [2, 9] [nM] | IC50 [4, 10] [nM] | IC50 [2, 11] [nM] | IC50 [4, 12] [nM] | IC50 [4, 13] [nM] | IC50 [2, 14] [nM] | SMILES |
| --- | --- | --- | --- | --- | --- | --- | --- | --- | --- | --- | --- | --- | --- | --- | --- | --- | --- | --- |
| 3.1 | ≤ 100 | 5.1 10^−6 cm/s | 30 10^−6 cm/s | 5.8 | 100 to 1000 |  |  |  |  |  |  |  |  |  |  |  |  | CCC1(c2cccc(-c3cc(C)ncc3C)c2)C2=C(CC(C)(C)CC2=O)Nc2ncccc21 (single isomer, unassigned) [Compound 1027B] |
|  |  |  |  |  |  | 8.3 | 100 to 1000 | 17 10^−6 cm/s | 8.7 10^−6 cm/s | 0.50 | 100 to 1000 |  |  |  |  |  |  | CC1(C)CC(=O)C2=C(C1)Nc1nccc(C(F)(F)F)c1C2(C)c1ccccc1 (single isomer, unassigned) [Compound 127A] |
| 4.8 | ≤ 100 | 4.2 10^−6 cm/s | 39 10^−6 cm/s | 9.5 | ≤ 100 |  |  |  |  |  |  | 100 to 1000 | 1000 to 5000 |  |  |  |  | CCC1(c2cccc(-c3ccnn3C)c2)C2=C(CC(C)(C)CC2=O)Nc2ncccc21 (single isomer, unassigned) [Compound 1019A] |
|  |  |  |  |  |  | 33 | 100 to 1000 | 2.5 10^−6 cm/s | 2.2 10^−6 cm/s | 0.90 | 100 to 1000 |  |  |  |  |  |  | CC(C)(C)Cc1cnccc1-c1cccc(C2(C)C3=C(CC(C)(C)CC3=O)Nc3ncc(F)cc32)c1 (single isomer, unassigned) [Compound 168A] |
|  |  |  |  |  |  | >145 | 1000 to 5000 | 20 10^−6 cm/s | 10 10^−6 cm/s | 0.53 | 1000 to 5000 |  |  |  |  |  |  | CC1(C)CC(=O)C2=C(C1)Nc1ncc(C(F)(F)F)cc1C2(C)c1ccccc1 (single isomer, unassigned) [Compound 128B] |
| 7.7 | ≤ 100 | 1.2 10^−6 cm/s | 42 10^−6 cm/s | 37 | ≤ 100 |  |  |  |  |  |  |  |  |  |  |  |  | CCC1(c2cccc(O)c2)C2=C(CC(C)(C)CC2=O)Nc2ncccc21 (single isomer, unassigned) [Compound 1004A] |
| 5.4 |  | 22 10^−6 cm/s | 31 10^−6 cm/s | 1.4 |  |  | 1000 to 5000 |  |  |  | 5000 to 20000 |  |  |  |  |  |  | CCC1(c2ccccc2)C2=C(CC3(CCC3)CC2=O)Nc2ncccc21 (single isomer, unassigned) [Compound 110A] |
| 6.6 | ≤ 100 | 3.1 10^−6 cm/s | 25 10^−6 cm/s | 8.3 | ≤ 100 |  | 5000 to 20000 |  |  |  | 5000 to 20000 | ≤ 100 | 100 to 1000 |  |  |  |  | CCC1(c2cccc(-c3c(F)cncc3OC)c2)C2=C(CC(C)(C)CC2=O)Nc2ncccc21 (single isomer, unassigned) [Compound 154B] |
|  |  |  |  |  |  | 1.1 | 5000 to 20000 | 1.8 10^−6 cm/s | 1.0 10^−6 cm/s | 0.59 | 5000 to 20000 |  |  | 20000 to 60000 | 5000 to 20000 | 20000 to 60000 |  | CC(C)(C)Cc1cnc2c(c1)C(C)(c1ccccc1)C1=C(CC(C)(C)CC1=O)N2 (single isomer, unassigned) [Compound 129B] |
|  |  |  |  |  |  | 0.53 | 5000 to 20000 | 1.3 10^−6 cm/s | 0.75 10^−6 cm/s | 0.60 | 5000 to 20000 |  |  | 100 to 1000 | 100 to 1000 | 100 to 1000 | 1000 to 5000 | CC(C)(C)Cc1ccnc2c1C(C)(c1ccccc1)C1=C(CC(C)(C)CC1=O)N2 (single isomer, unassigned) [Compound 130B] |
| 5.3 | 1000 to 5000 | 0.7 10^−6 cm/s | 47 10^−6 cm/s | 65 | > 5000 |  |  |  |  |  |  |  |  |  |  |  |  | CCC1(c2cccc(O)c2)C2=C(CC(C)(C)CC2=O)Nc2ncccc21 (single isomer, unassigned) [Compound 1004B] |
|  |  |  |  |  |  | 37 | 1000 to 5000 | 30 10^−6 cm/s | 22 10^−6 cm/s | 0.72 | 1000 to 5000 |  |  | ≤ 100 | ≤ 100 | 100 to 1000 | 100 to 1000 | CC1(C)CC(=O)C2=C(C1)Nc1ncccc1C2(C)c1ccccc1 (single isomer, unassigned) [Compound 101A] |
|  |  |  |  |  |  | 0.55 | 5000 to 20000 | 1.4 10^−6 cm/s | 0.65 10^−6 cm/s | 0.48 | 5000 to 20000 |  |  | ≤ 100 | ≤ 100 | 100 to 1000 | 100 to 1000 | CC(C)(C)Cc1ccnc2c1C(C)(c1ccccc1)C1=C(CC(C)(C)CC1=O)N2 (single isomer, unassigned) [Compound 130A] |
| 1.2 | > 5000 | 6.7 10^−6 cm/s | 29 10^−6 cm/s | 4.3 | > 5000 |  |  |  |  |  |  |  |  |  |  |  |  | CCC1(c2ccccc2)C2=C(CC(C)(C)CC2=O)Nc2ncccc21 (single isomer, unassigned) [102 B] |
| 3.8 | ≤ 100 | 15 10^−6 cm/s | 28 10^−6 cm/s | 1.9 | ≤ 100 |  |  |  |  |  |  |  |  |  |  |  |  | CCC1(c2cccc(C(C)C)c2)C2=C(CC(C)(C)CC2=O)Nc2ncccc21 (single isomer, unassigned) [Compound 1011B] |
|  |  |  |  |  |  | 94 | 1000 to 5000 | 30 10^−6 cm/s | 18 10^−6 cm/s | 0.61 | 1000 to 5000 |  |  |  |  |  |  | CC1(C)CC(=O)C2=C(C1)Nc1ncc(F)cc1C2(C)c1ccccc1 (single isomer, unassigned) [Compound 107B] |
